These results are taken from patent US10112943B2, “Substituted imidazoles as gamma secretase modulators” (Janssen Pharmaceutica NV, priority 2012, dated 2018).

Data set [1] addresses T1, γ-secretase (Homo sapiens, UniProt P49768).
T1 construct: endogenous in cells; host or cells: SKNBE2 human neuroblastoma cells carrying hAPP 695 wild type
Description: Screening for γ-secretase-modulating activity: Aβ42 in cell supernatant (Alphalisa sandwich immuno-assay). As to conditions: SKNBE2 human neuroblastoma cells carrying hAPP 695-wild type, overnight incubation. The data set is classed as cell-based. As for the experimental part:
(§1) A) Screening of the Compounds of the Invention for γ-Secretase-Modulating Activity
(§2) Screening was carried out using SKNBE2 human neuroblastoma cells carrying the hAPP 695-wild type, grown in Dulbecco's Modified Eagle's Medium/Nutrient mixture F-12 (DMEM/NUT-mix F-12) (HAM) provided by Invitrogen (cat no. 10371-029) containing 5% Serum/Fe supplemented with 1% non-essential amino acids, 1-glutamine 2 mM, Hepes 15 mM, penicillin 50 U/ml (units/ml) and streptomycin 50 μg/ml. Cells were grown to near confluency.
(§3) The screening was performed using a modification of the assay as described in Citron et al (1997) Nature Medicine 3: 67. Briefly, cells were plated in a 384-well plate at 10^4 cells/well in Ultraculture (Lonza, BE12-725F) supplemented with 1% glutamine (Invitrogen, 25030-024), 1% non-essential amino acid (NEAA), penicillin 50 U/ml en streptomycin 50 μg/ml in the presence of test compound at different test concentrations. The cell/compound mixture was incubated overnight at 37° C., 5% CO2. The next day the media were assayed by two sandwich immuno-assays, for Aβ42 and Aβtotal.
(§4) Aβtotal and Aβ42 concentrations were quantified in the cell supernatant using the Aphalisa technology (Perkin Elmer). Alphalisa is a sandwich assay using biotinylated antibody attached to streptavidin coated donorbeads and antibody conjugated to acceptor beads. In the presence of antigen, the beads come into close proximity. The excitation of the donor beads provokes the release of singlet oxygen molecules that trigger a cascade of energy transfer in the acceptor beads, resulting in light emission. To quantify the amount of Aβ42 in the cell supernatant, monoclonal antibody specific to the C-terminus of Aβ42 (JRF/cAβ42/26) was coupled to the receptor beads and biotinylated antibody specific to the N-terminus of Aβ (JRF/AβN/25) was used to react with the donor beads. To quantify the amount of Aβtotal in the cell supernatant, monoclonal antibody specific to the N-terminus of Aβ (JRF/AβN/25) was coupled to the receptor beads and biotinylated antibody specific to the mid region of Aβ (biotinylated 4G8) was used to react with the donor beads.
To obtain the values reported in Table 3, the data are calculated as percentage of the maximum amount of amyloid Beta 42 measured in the absence of the test compound.
(§5) The sigmoidal dose response curves were analyzed using non-linear regression analysis with percentage of the control plotted against the log concentration of the compound. A 4-parameter equation was used to determine the IC50.
For orientation: Bead proximity is the source of the signal in Alpha formats.

For data set [2], the target named is T1, γ-secretase. Description: Screening for γ-secretase-modulating activity: Aβtotal in cell supernatant (Alphalisa sandwich immuno-assay). The data set is classed as cell-based. As to conditions: SKNBE2 human neuroblastoma cells carrying hAPP 695-wild type, overnight incubation. As for the experimental part: as §1, §2, §3, §4, §5

As a reminder, the IC50 is the midpoint of a concentration-inhibition curve. A low value points to inhibition by little substance. In general, melting point refers to the temperature of the solid-liquid transition. Turning to `Cc1cn(-c2ccc3n(c2=O)C[C@@H]2CC[C@@H](Cc4cc(C(F)(F)F)cc(C(F)(F)F)c4)N2C3=O)cn1` (single isomer, unassigned) [Compound 2, 3-[[3,5-bis(trifluoromethyl)phenyl]methyl]-2,3,11,11a-tetrahydro-8-(4-methyl-1H-imidazol-1-yl)-1H-pyrido[1,2-a]pyrrolo[1,2-d]pyrazine-5,9-dione ((3R, 11aR) or (3S, 11aS))], the melting point was found to be 255.25 °C. Also, the IC50 against γ-secretase [1] was more than 10 µM. In addition, on γ-secretase [2], the concentration for half-maximal inhibition (IC50) was more than 10 µM.
Molecule `Cc1cn(-c2ccc3n(c2=O)C[C@@H]2CC[C@H](Cc4cc(C(F)(F)F)cc(C(F)(F)F)c4)N2C3=O)cn1` (single isomer, unassigned) [Compound 3, 3-[[3,5-bis(trifluoromethyl)phenyl]methyl]-2,3,11,11a-tetrahydro-8-(4-methyl-1H-imidazol-1-yl)-1H-pyrido[1,2-a]pyrrolo[1,2-d]pyrazine-5,9-dione ((3S, 11aR) or (3R, 11aS))] displayed a melting point of 241.17 °C. Also, the IC50 at γ-secretase [1] was determined as 0.42 µM. Moreover, the IC50 against γ-secretase [2] is more than 10 µM.
The corresponding values for `Cc1cn(-c2ccc3n(c2=O)C[C@@H]2CC[C@H](Cc4cc(C(F)(F)F)cc(C(F)(F)F)c4)N2C3=O)cn1` (single isomer, unassigned) [Compound 5, 3-[[3,5-bis(trifluoromethyl)phenyl]methyl]-2,3,11,11a-tetrahydro-8-(4-methyl-1H-imidazol-1-yl)-1H-pyrido[1,2-a]pyrrolo[1,2-d]pyrazine-5,9-dione ((3R, 11aS) or (3S, 11aR))] are 238.34 °C, 0.98 µM and more than 10 µM.
The corresponding values for `Cc1cn(-c2ccc3n(c2=O)C[C@@H]2CCC[C@@H](Cc4cc(C(F)(F)F)cc(C(F)(F)F)c4)N2C3=O)cn1` (single isomer, unassigned) [Compound 7, 10-[[3,5-bis(trifluoromethyl)phenyl]methyl]-6,6a,7,8,9,10-hexahydro-3-(4-methyl-1H-imidazol-1-yl)-dipyrido[1,2-a:1′,2′-d]pyrazine-4,12-dione ((6aR, 10R) or (6aS, 10S))] are 231.07 °C, 1.12 µM and more than 10 µM.
`Cc1cn(-c2ccc3n(c2=O)C[C@@H]2CCC[C@H](Cc4cc(C(F)(F)F)cc(C(F)(F)F)c4)N2C3=O)cn1` (single isomer, unassigned) [Compound 8, 10-[[3,5-bis(trifluoromethyl)phenyl]methyl]-6,6a,7,8,9,10-hexahydro-3-(4-methyl-1H-imidazol-1-yl)-dipyrido[1,2-a:1′,2-d]pyrazine-4,12-dione ((6aS, 10R) or (6aR, 10S))] showed a melting point of 247.06 °C. This molecule came in with an IC50 against γ-secretase [1] of 0.11 µM. Also, the 50% inhibitory concentration (IC50) at γ-secretase [2] is more than 10 µM.
The like results for `Cc1cn(-c2ccc3n(c2=O)C[C@@H]2CCC[C@H](Cc4cc(C(F)(F)F)cc(C(F)(F)F)c4)N2C3=O)cn1` (single isomer, unassigned) [Compound 9, 10-[[3,5-bis(trifluoromethyl)phenyl]methyl]-6,6a,7,8,9,10-hexahydro-3-(4-methyl-1H-imidazol-1-yl)-dipyrido[1,2-a:1′,2-d]pyrazine-4,12-dione ((6aR, 10S) or (6aS, 10R))] were, in that order, 246.53 °C, 0.29 µM and more than 10 µM.
The like results for `Cc1cn(-c2ccc3n(c2=O)C[C@@H]2CCC[C@@H](Cc4cc(C(F)(F)F)cc(C(F)(F)F)c4)N2C3=O)cn1` (single isomer, unassigned) [Compound 10, 10-[[3,5-bis(trifluoromethyl)phenyl]methyl]-6,6a,7,8,9,10-hexahydro-3-(4-methyl-1H-imidazol-1-yl)-dipyrido[1,2-a:1′,2-d]pyrazine-4,12-dione ((6aS, 10S) or (6aR, 10R))] were, in that order, 231.74 °C, 0.13 µM and 3.16 µM.
For `Cc1cn(-c2ccc3n(c2=O)C[C@@H]2CCC[C@H](c4cc(C(F)(F)F)cc(C(F)(F)F)c4)N2C3=O)cn1` (single isomer, unassigned) [Compound 12, 10-[3,5-bis(trifluoromethyl)phenyl]-6,6a,7,8,9,10-hexahydro-3-(4-methyl-1H-imidazol-1-yl)-dipyrido[1,2-a: 1′,2′-d]pyrazine-4,12-dione ((6aR, 10S) or (6aS, 10R))], the IC50 was 0.24 µM at γ-secretase [1] and more than 10 µM against γ-secretase [2].
`Cc1cn(-c2ccc3n(c2=O)C[C@@H]2CCC[C@H](c4cc(C(F)(F)F)cc(C(F)(F)F)c4)N2C3=O)cn1` (single isomer, unassigned) [Compound 13, 10-[3,5-bis(trifluoromethyl)phenyl]-6,6a,7,8,9,10-hexahydro-3-(4-methyl-1H-imidazol-1-yl)-dipyrido[1,2-a: 1′,2′-d]pyrazine-4,12-dione ((6aS, 10R) or (6aR, 10S)]: the IC50 against γ-secretase [1] was more than 10 µM.
`Cc1cn(-c2ccc3n(c2=O)CC2CCC(Cc4cc(C(F)(F)F)cc(C(F)(F)F)c4)N2C3=O)cn1` (stereo not drawn) [Compound 1, 3-[[3,5-bis(trifluoromethyl)phenyl]methyl]-2,3,11,11a-tetrahydro-8-(4-methyl-1H-imidazol-1-yl)-1H-pyrido[1,2-a]pyrrolo[1,2-d]pyrazine-5,9-dione] displayed a melting point of 234.89 °C. On γ-secretase [1], this molecule had an IC50 of 0.16 µM. Further, the half-maximal inhibitory concentration (IC50) against γ-secretase [2] is more than 10 µM.
On to `Cc1cn(-c2ccc3n(c2=O)C[C@H]2CC[C@H](c4cc(C(F)(F)F)cc(C(F)(F)F)c4)N2C3=O)cn1` [Compound 15, (3R,11aR)-3-[3,5-bis(trifluoromethyl)phenyl]-2,3,11,11a-tetrahydro-8-(4-methyl-1H-imidazol-1-yl)-1H-pyrido[1,2-a]pyrrolo[1,2-d]pyrazine-5,9-dione], for which the IC50 was 4.57 µM against γ-secretase [1] and more than 10 µM on γ-secretase [2].
The like results for `Cc1cn(-c2ccc3n(c2=O)C[C@@H]2CC[C@@H](c4cc(C(F)(F)F)cc(C(F)(F)F)c4)N2C3=O)cn1` [Compound 16, (3S,11aS)-3-[3,5-bis(trifluoromethyl)phenyl]-2,3,11,11a-tetrahydro-8-(4-methyl-1H-imidazol-1-yl)-1H-pyrido[1,2-a]pyrrolo[1,2-d]pyrazine-5,9-dione] were, in that order, 0.19 µM and more than 10 µM.
The like results for `Cc1cn(-c2ccc3n(c2=O)C[C@@H]2CC[C@H](c4cc(C(F)(F)F)cc(C(F)(F)F)c4)N2C3=O)cn1` [Compound 18, (3R,11aS)-3-[3,5-bis(trifluoromethyl)phenyl]-2,3,11,11a-tetrahydro-8-(4-methyl-1H-imidazol-1-yl)-1H-pyrido[1,2-a]pyrrolo[1,2-d]pyrazine-5,9-dione] were, in that order, more than 10 µM and more than 10 µM.
`Cc1cn(-c2ccc3n(c2=O)C[C@H]2CC[C@@H](c4cc(C(F)(F)F)cc(C(F)(F)F)c4)N2C3=O)cn1` [Compound 19, (3S,11aR)-3-[3,5-bis(trifluoromethyl)phenyl]-2,3,11,11a-tetrahydro-8-(4-methyl-1H-imidazol-1-yl)-1H-pyrido[1,2-a]pyrrolo[1,2-d]pyrazine-5,9-dione]: the IC50 was 0.72 µM against γ-secretase [1] and more than 10 µM against γ-secretase [2].
The like results for `Cc1cn(-c2ccc3n(c2=O)C[C@H]2CC[C@H](c4ccc(Cl)c(Cl)c4)N2C3=O)cn1` [Compound 20, (3R,11aR)-3-(3,4-dichlorophenyl)-2,3,11,11a-tetrahydro-8-(4-methyl-1H-imidazol-1-yl)-1H-pyrido[1,2-a]pyrrolo[1,2-d]pyrazine-5,9-dione] were, in that order, 4.47 µM and 9.33 µM.
The like results for `Cc1cn(-c2ccc3n(c2=O)C[C@H]2CC[C@@H](c4ccc(Cl)c(Cl)c4)N2C3=O)cn1` [Compound 21, (3S,11aR)-3-(3,4-dichlorophenyl)-2,3,11,11a-tetrahydro-8-(4-methyl-1H-imidazol-1-yl)-1H-pyrido[1,2-a]pyrrolo[1,2-d]pyrazine-5,9-dione] were, in that order, 1.32 µM and more than 15.1 µM.
